The term IC50 denotes the midpoint of a concentration-inhibition curve. Usually IC90 stands for the concentration at which the effect reaches the 90% level. A low value points to an effect from little substance.

The assay deals with M. tuberculosis H37Rv growth inhibition, 7H9 media. In words: M. tuberculosis growth inhibition, HTS (AID 449762).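 For all read-outs here: bacterial growth assessed after seven days of incubation.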 Conditions: for IC90: measured here: IC90 growth inhibition.

Results filed as inconclusive are left out.

For `COC(=O)c1ccc(NC(=O)CSc2nc3ccc(N4C(=O)C5C6C=CC(C6)C5C4=O)cc3s2)cc1` (stereo not drawn), the IC50 is 3.89 µM and the IC90 came to 5.73 µM. For `CCN1CCN(Cc2ccc(NC(=O)c3ccc(C)c(/C=C/c4cnc(Nc5cc(N6CCNCC6)nc(C)n5)cn4)c3)cc2C(F)(F)F)CC1` the same measures were 35.1 µM and 57.9 µM. For `Cc1cc(C)n2[nH]c(=O)c(N=Nc3cccc(C(F)(F)F)c3)c2n1`, in that order: 86.5 µM and greater than 100 µM.

Take `COc1ccc(-c2cc(-c3ccc(OC)cc3)[nH]n2)cc1`: the IC50 was 0.33 µM and the IC90 was 1 µM. For `Cc1cc(C(=O)N/N=C\C(Br)=C\c2ccccc2)c(C)o1`, in that order: 38.5 µM and 53.8 µM. For the molecule `Cc1ccc2nc3c(cc(C(=O)NCc4ccco4)c(=N)n3Cc3ccco3)c(=O)n2c1`, the IC50 was 31.9 µM and the concentration for an effect of 90% (IC90) was greater than 100 µM.

For `O=C(c1cc2cc(F)ccc2[nH]1)N(Cc1cccnc1)CC1CCCN(C2CCCCC2)C1` (stereo not drawn), the IC50 was 25 µM and the IC90 is 33.6 µM.

As to `CCOc1cccc(/C=C/c2ccc3cccc(O)c3n2)c1O`, the IC50 is 1.38 µM and the IC90 worked out at 18.5 µM. Take `c1ccc2c(C3=NNC(=NC4CCCCC4)SC3)c[nH]c2c1`: the IC50 was 42.7 µM and the IC90 stood at 47.2 µM.

For `O=C(NC(C(=O)N/N=C/c1cccc2ccccc12)c1n[nH]c(=O)c2ccccc12)c1ccccc1` (stereo not drawn), the IC50 was 53.2 µM and the IC90 is greater than 100 µM.

Take `CCCCS/C(N)=N/N=C/c1cc(C)ccc1O`: the IC50 is 12.3 µM and the IC90 was 13.9 µM. For `CCCSc1nnc(Sc2nnnn2-c2ccccc2)s1` the same measures were 10.2 µM and 33 µM.

Turning to `Cc1ncc(C23CC4CC(CC(C4)C2)C3)[nH]1`, the IC50 was 49.9 µM and the IC90 was 51.5 µM. For `COC(=O)[C@@H](NC(=O)O[C@@H]1C(=O)c2ccc(OC)cc2O[C@H]1c1cccc(C(F)(F)F)c1)C(C)C` the same measures were 56.2 µM and greater than 100 µM. As to `Nc1ccc2c(c1)oc1ccccc12`, the IC90 was greater than 100 µM. `Cc1ccc(C(=O)Nc2ccc3c4c(cccc24)CC3)cc1[N+](=O)[O-]`: the IC50 is less than 0.2 µM and the IC90 is greater than 100 µM. Consider `COc1ccc(CCNc2cc(-c3ccccc3)nc3ncnn23)cc1`, for which the IC50 was 4.49 µM and the IC90 was greater than 100 µM. `Oc1ccc2ccccc2c1C1Nc2cccc3cccc(c23)N1`: the 50% inhibitory concentration (IC50) is 75 µM and the IC90 is greater than 100 µM. For `COc1ccc(CN(CCC(c2ccccc2)c2ccc(OC(C)C)cc2)C(=O)CCl)cc1OC` (stereo not drawn), the IC50 is 6.53 µM and the IC90 stood at 12.5 µM. Regarding `CCCCCCC#Cc1ccc2c(c1)COc1c3ccccc3nn1-2`, the IC50 was 93.8 µM and the IC90 was greater than 100 µM. For `Cc1ccc(C(=O)c2cc(C)sc2NC(=O)CN2CCN(C(=O)c3ccco3)CC2)cc1`, in that order: 3.81 µM and 12 µM. For `CCOC(=O)C1CCN(CC(O)COc2ccc(C(C)(C)CC)cc2)CC1` (stereo not drawn), the IC50 is 22.8 µM and the IC90 turned out to be 29.5 µM. For `COc1ccc2c(c1)[C@@H]1[C@H](CO2)[C@H](c2ccccc2)[C@]2(C)C(=O)Nc3ccc(C)cc3C(=O)N12` the same measures were 49.5 µM and greater than 100 µM. For `CCCC(=O)Nc1ccc(C(=O)/C=C/c2ccc(SC)cc2)cc1` the same measures were 22.9 µM and 37.1 µM.

On to `O=C(NCc1ccccn1)C(=O)Nc1nc(C23CC4CC(CC(C4)C2)C3)cs1`, for which the IC50 was 1.75 µM and the IC90 was determined as 5.26 µM. With `O=C(CSCc1ccc([N+](=O)[O-])cc1)N/N=C/c1ccncc1`, the IC50 was 3.47 µM and the IC90 came to 10.3 µM. For `Cc1cc(C)nc(Sc2ncnc(N)c2[N+](=O)[O-])n1`, in that order: 7.98 µM and 20.7 µM.

As for `Cc1ccc(C(=O)CC(SCC(=O)O)c2ccc([N+](=O)[O-])cc2)cc1` (stereo not drawn), the IC50 was 5.78 µM and the IC90 is 6.72 µM. Regarding `Cc1c(Cl)ccc2sc(N3CCN(C(=O)C4=COCCO4)CC3)nc12`, the IC50 was 26.2 µM and the IC90 turned out to be 59 µM. Consider `CCN1CCN(CCCNC(=O)c2ccc(/C=C3/Oc4ccccc4N(Cc4cccc(C)c4)C3=O)cc2)CC1`, for which the IC50 was 29.6 µM and the IC90 is 42.2 µM. For `CN(Cc1ccc(Cl)s1)C(=O)CCl` the same measures were 0.66 µM and 0.91 µM. `COc1ccc(OCc2cccc(C(=O)Nn3cc([N+](=O)[O-])cn3)c2)cc1`: the 50% inhibitory concentration (IC50) was 9.92 µM and the IC90 was determined as 36.5 µM.

In the case of `Clc1ccc(CSc2ncn[nH]2)cc1`, the IC90 was greater than 100 µM. Take `C[C@@H]1CCCCCCCCC(=O)OCCN[C@H](C)CCCCCCCCC(=O)OCCN[C@H](C)CCCCCCCCC(=O)OCCN1`: the 50% inhibitory concentration (IC50) is 25.2 µM and the IC90 was 29.4 µM. With `C/C(CCc1ccc2c(c1)OCO2)=N\NC(=S)NC(C)C`, the IC50 is 35.7 µM and the IC90 worked out at 48.4 µM. For `CSc1ccc(CNC(=O)C2Cc3cc(S(=O)(=O)N4CCCCC4)ccc3N2C(C)=O)cc1` (stereo not drawn) the same measures were 46.4 µM and greater than 50 µM. For `COc1cc(OC)cc(-c2cc3nc(C)c(CCC(=O)NC(C)CCc4ccco4)c(C)n3n2)c1` (stereo not drawn), in that order: 44.3 µM and greater than 100 µM.

For the molecule `COC(=O)c1c(NC(=O)CC2SC(N)=NC2=O)sc2c1CCC(C(C)(C)C)C2` (stereo not drawn), the IC50 is 34.4 µM and the IC90 was 51.3 µM. For `Nc1cc(C(=O)OCC(=O)NNC(=O)c2cccs2)ccc1Cl`, in that order: 64.2 µM and greater than 100 µM. For `COc1ccccc1C1CC(c2c(-c3ccccc3)c3cc(Cl)ccc3[nH]c2=O)=NN1S(C)(=O)=O` (stereo not drawn), the IC50 was 93.7 µM and the IC90 was greater than 100 µM.

In the case of `O=C1CCc2ccc(OCCCCN3CCN(c4cccc(Cl)c4Cl)CC3)cc2N1`, the IC50 was 13.1 µM and the IC90 is greater than 100 µM. For `Nc1c(-c2ccccn2)cnn1-c1nc(-c2ccc(F)cc2)cs1`, in that order: 12.6 µM and greater than 100 µM. `CCc1cc(C(=O)NNC(=O)CCl)sc1C`: the IC50 was 2.55 µM and the IC90 was 4.62 µM. On to `O=C(Nc1cccc(-c2csc(Nc3ccc(Cl)cc3)n2)c1)c1cccc(C(F)(F)F)c1`, for which the IC50 is 27 µM and the IC90 was greater than 100 µM.

With `COc1ccccc1C1=NOC(COC(=O)c2ccc([N+](=O)[O-])cc2)C1` (stereo not drawn), the IC50 is 34.4 µM and the IC90 is greater than 100 µM. For the molecule `O=C(CN1CCN(c2ccccc2O)CC1)Nc1ccccc1C(=O)NCCc1ccccc1`, the IC50 is 44.3 µM and the IC90 amounted to 57.9 µM. As for `CCOC(=O)CNC(=O)c1sc2ncnc(N3CCc4ccccc4C3)c2c1C`, the IC50 is 53.2 µM and the concentration for an effect of 90% (IC90) was greater than 100 µM. In the case of `CN1C(=O)N(C)c2ccc(C=O)c3cccc1c23`, the IC50 was 41 µM and the IC90 was found to be 57.2 µM. For `Oc1ccccc1/C=N/NC(=S)NC1CC2CC1C1C=CCC21` (stereo not drawn) the same measures were 11.1 µM and 12.3 µM. For `CCOc1ccc(C2c3[nH]c4ccccc4c3C[C@H]3C(=O)N(C4CCN(Cc5ccccc5)CC4)CC(=O)N23)cc1OC` (stereo partly drawn), in that order: 21.5 µM and 29.7 µM.

Consider `Cc1ccc(C)c(S(=O)(=O)N2CCC(c3nc4c(nnn4Cc4ccc5c(c4)OCCO5)c(=O)[nH]3)CC2)c1`, for which the IC50 is 23.1 µM and the IC90 was greater than 100 µM. For `CCOC(=O)COn1c2c(c3c4no[n+]([O-])c4ccc31)CCCC2` the same measures were 3.16 µM and 5.83 µM. For `C/C(=N\NC(N)=S)c1ccc(Cl)s1`, in that order: 12 µM and 17.7 µM.

In the case of `Cc1cc(NC(=O)c2cc(-c3ccncc3)nc3c(C)cccc23)no1`, the IC50 is 46.5 µM and the IC90 is greater than 100 µM. As to `CC(C)Oc1ccc(-c2nc(NCC3CCCO3)c3ccccc3n2)cc1` (stereo not drawn), the IC50 was 68 µM and the IC90 worked out at 91.3 µM.

As to `Cc1nn(Cc2ccccc2)c(C)c1NC(=O)c1cc2nc(-c3ccco3)cc(C(F)(F)F)n2n1`, the IC50 is 46.5 µM and the IC90 was greater than 100 µM.

`CCCCOC(=O)CCN1C(=O)/C(=C2\SC(=S)N(CCC(=O)OCCCC)C2=O)SC1=S`: the IC50 is 2.98 µM and the 90% effect concentration (IC90) was 6.96 µM. For `O=[N+]([O-])c1c(C(Cl)Cl)nn(-c2ccc(Cl)cc2)c1N1CCCCC1`, the half-inhibitory concentration (IC50) is 15.6 µM and the IC90 stood at 19.4 µM. For `CCc1cccc2c(=O)c(C(=O)N3CCOCC3)c[nH]c12` the same measures were 6.62 µM and 14.2 µM. For `O=C(Nc1cc(C(F)(F)F)ccc1Cl)C(Sc1cccc[n+]1[O-])c1ccccc1` (stereo not drawn), in that order: 39.2 µM and 47.9 µM.

In the case of `Cc1ccc(NC(=O)COC(=O)C(NS(=O)(=O)c2ccc(Cl)cc2)C(C)O)cc1C` (stereo not drawn), the IC50 is 2.17 µM and the IC90 is 8.97 µM. `O=C(O)/C=C/C(=O)Nc1ccc(-c2ccccc2)cc1`: the IC50 was 34.3 µM and the 90% effect concentration (IC90) is greater than 100 µM. For `Clc1ccc2c(c1)C(c1ccccc1Cl)=NCc1nnc(N3CCN(CCOc4ccccc4)CC3)n1-2` the same measures were 43 µM and 48 µM. For `COC(=O)c1ccc2c(c1O)C(=O)c1ccccc1C2=O` the same measures were 65.4 µM and 77.9 µM. For `COc1ccccc1OC(=O)c1ccc(S(=O)(=O)N(C)C)cc1` the same measures were 9.96 µM and 18.4 µM. On to `C=CCSc1n[nH]c(-c2ccc(OCCCC)cc2)n1`, for which the half-inhibitory concentration (IC50) was 15.8 µM and the concentration for an effect of 90% (IC90) turned out to be 39.2 µM. Turning to `Cc1ccc(/C=C2\SC(N3CCCC3)=NC2=O)cc1`, the IC50 was 0.38 µM and the IC90 was 1.68 µM. Regarding `C=C(C)C1Cc2c(C)nn(-c3nc(C)cc(C)n3)c2C1` (stereo not drawn), the IC50 was 2.72 µM and the IC90 is 6.74 µM. For `CN1C(=S)SC(N(O)C(=O)Nc2ccc(Cl)c(Cl)c2)C1(C)C` (stereo not drawn) the same measures were 22.8 µM and 25.6 µM. For `CCc1nc(N2CCN(C(C)=O)CC2)c2c3c(sc2n1)CC(C(C)(C)C)CC3` (stereo not drawn), in that order: 12.8 µM and 14.1 µM.

The values are drawn from PubChem BioAssay AID449762 (Southern Research Specialized Biocontainment Screening …, 2010).
